The target of the experiment is T1, human GPBAR1 receptor (Homo sapiens, UniProt Q8TDU6).
T1 construct: expressed in transfected cells
T1 sequence (Q8TDU6 1-330): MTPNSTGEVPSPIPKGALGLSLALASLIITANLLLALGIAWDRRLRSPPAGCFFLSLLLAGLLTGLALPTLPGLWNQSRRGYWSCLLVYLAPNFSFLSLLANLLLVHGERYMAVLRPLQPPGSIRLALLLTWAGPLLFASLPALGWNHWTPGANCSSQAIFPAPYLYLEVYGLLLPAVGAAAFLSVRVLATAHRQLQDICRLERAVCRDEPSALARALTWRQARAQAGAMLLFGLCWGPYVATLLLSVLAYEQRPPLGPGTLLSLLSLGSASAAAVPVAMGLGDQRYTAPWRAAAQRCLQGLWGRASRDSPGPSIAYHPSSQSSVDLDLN
Kind of experiment: functional cAMP assay in CHO-dhfr(minus) cells expressing human GPBAR1 receptors. It counts as cell-based. Conditions: human EC50, functional cAMP assay, 30 min at 30° C. Put shortly: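 Agonist cAMP read-out: stable GPBAR1 CHO-dhfr− clone, 30 min compound exposure at 30° C following 30 min IBMX (1 mM) preincubation in Krebs Ringer bicarbonate. Time-resolved energy-transfer detection gives EC50; parental CHO cells serve as counter-screen.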
A general note: Cyclic AMP is a second messenger, typically raised through Gs and lowered through Gi signalling.

As for `CN1CCC(N(C)C(=O)c2ccc(C(C/C(=N\O)c3ccc(=O)n(C)c3)c3ccccc3Cl)cc2F)CC1` (stereo not shown) [Example 218, (E)-4-(1-(2-Chlorophenyl)-3-(hydroxyimino)-3-(1-methyl-6-oxo-1,6-dihydropyridin-3-yl)propyl)-2-fluoro-N-methyl-N-(1-methylpiperidin-4-yl)benzamide], the EC50 was found to be 1640 nM. In other words, the single-digit micromolar range.

As for `Cn1cc(/C(CC(c2ccc(C(=O)NC3CCOCC3)c(F)c2)c2ccccc2Cl)=N/O)ccc1=O` (stereo not shown) [Example 219, (E)-4-(1-(2-Chlorophenyl)-3-(hydroxyimino)-3-(1-methyl-6-oxo-1,6-dihydropyridin-3-yl)propyl)-2-fluoro-N-(tetrahydro-2H-pyran-4-yl)benzamide], the 50% effective concentration (EC50) came out at 1160 nM.

On to `Cn1cc(/C(CC(c2ccc(C(=O)NC3COC3)c(F)c2)c2ccccc2Cl)=N/O)ccc1=O` (stereo not shown) [Example 220, (E)-4-(1-(2-Chlorophenyl)-3-(hydroxyimino)-3-(1-methyl-6-oxo-1,6-dihydropyridin-3-yl)propyl)-2-fluoro-N-(oxetan-3-yl)benzamide], for which the response was half-maximal at 680 nM (EC50). This EC50 lies about 1.7-fold lower than the previous one.

Take `Cc1ccccc1C(C/C(=N\O)c1ccc(=O)n(C)c1)c1ccc(OCC(=O)O)cc1F` (stereo not shown) [Example 221, {3-Fluoro-4-[3-[(E)-hydroxyimino]-3-(1-methyl-6-oxo-1,6-dihydro-pyridin-3-yl)-1-o-tolyl-propyl]-phenoxy}-acetic acid]: a half-maximal response (EC50) required 4080 nM.

Compound `Cc1ccccc1C(C/C(=N\O)c1ccc(=O)n(C)c1)c1ccc(Oc2ccc(C(=O)O)c(F)c2)cc1F` (stereo not shown) [Example 222, 2-Fluoro-4-{3-fluoro-4-[3-[(E)-hydroxyimino]-3-(1-methyl-6-oxo-1,6-dihydro-pyridin-3-yl)-1-o-tolyl-propyl]-phenoxy}-benzoic acid] had a half-maximal effective concentration (EC50) of 3590 nM. The EC50 values of the last two compounds are within 1.5-fold of each other.

Take `Cc1cc(F)ccc1C(C/C(=N\O)c1ccc(=O)n(C)c1)c1ccc(Br)cc1` (stereo not shown) [Example 224, (E)-5-(3-(4-Bromophenyl)-3-(4-fluoro-2-methylphenyl)-1-(hydroxyimino)propyl)-1-methylpyridin-2(1H)-one]: the concentration giving a half-maximal response (EC50) was 6 nM.

For `Cc1cc(F)ccc1C(C/C(=N\O)c1ccc(=O)n(C)c1)c1ccc(-c2ccc(C(=O)O)cc2)cc1` (stereo not shown) [Example 225, (E)-4′-(1-(4-Fluoro-2-methylphenyl)-3-(hydroxyimino)-3-(1-methyl-6-oxo-1,6-dihydropyridin-3-yl)propyl)biphenyl-4-carboxylic acid], a half-maximal response (EC50) required 49 nM.

With `Cc1cc(Cl)ccc1C(C/C(=N\O)c1ccc(=O)n(C)c1)c1ccc(Br)cc1` (stereo not shown) [Example 226, 5-{3-(4-Bromo-phenyl)-3-(4-chloro-2-methyl-phenyl)-1-[(E)-hydroxyimino]-propyl}-1-methyl-1H-pyridin-2-one], the concentration giving a half-maximal response (EC50) amounted to 38 nM.

The compound `Cc1cc(Cl)ccc1C(C/C(=N\O)c1ccc(=O)n(C)c1)c1ccc(-c2ccc(C(=O)O)cc2)cc1` (stereo not shown) [Example 227, (E)-4′-(1-(4-Chloro-2-methylphenyl)-3-(hydroxyimino)-3-(1-methyl-6-oxo-1,6-dihydropyridin-3-yl)propyl)biphenyl-4-carboxylic acid] showed an EC50 of 55 nM.

The compound `COC(=O)CNC(=O)c1ccc(-c2ccc(C(C/C(=N\O)c3ccc(=O)n(C)c3)c3ccc(Cl)cc3C)cc2)cc1` (stereo not shown) [Example 228, (E)-methyl 2-(4′-(1-(4-chloro-2-methylphenyl)-3-(hydroxyimino)-3-(1-methyl-6-oxo-1,6-dihydropyridin-3-yl)propyl)biphenyl-4-ylcarboxamido)acetate] gave a concentration for a half-maximal effect (EC50) of 18 nM.

`Cc1cc(Cl)ccc1C(C/C(=N\O)c1ccc(=O)n(C)c1)c1ccc(-c2ccc(C(=O)NCC(=O)O)cc2)cc1` (stereo not shown) [Example 229, (E)-2-(4′-(1-(4-chloro-2-methylphenyl)-3-(hydroxyimino)-3-(1-methyl-6-oxo-1,6-dihydropyridin-3-yl)propyl)biphenyl-4-ylcarboxamido)acetic acid]: the EC50 is 22 nM.

Consider `Cc1cc(Cl)ccc1C(C/C(=N\O)c1ccc(=O)n(C)c1)c1ccc(-c2ccc(C(=O)NCc3nnn[nH]3)cc2)cc1` (stereo not shown) [Example 230, (E)-N-((1H-tetrazol-5-yl)methyl)-4′-(1-(4-chloro-2-methylphenyl)-3-(hydroxyimino)-3-(1-methyl-6-oxo-1,6-dihydropyridin-3-yl)propyl)biphenyl-4-carboxamide], for which the EC50 turned out to be 18 nM.

In turn, `Cn1cc(/C(CC(c2ccc(C(=O)N[C@H]3CC[C@H](C(=O)O)CC3)c(F)c2)c2ccccc2Cl)=N/O)ccc1=O` (stereo partly drawn) [Example 231, Trans-4-{4-[1-(2-Chloro-phenyl)-3-[(E)-hydroxyimino]-3-(1-methyl-6-oxo-1,6-dihydro-pyridin-3-yl)-propyl]-2-fluoro-benzoylamino}-cyclohexanecarboxylic acid] showed a half-maximal effective concentration (EC50) of 283 nM.

In turn, `COCCNC(=O)c1ccc(C(C/C(=N\O)c2ccc(=O)n(C)c2)c2ccccc2Cl)cc1F` (stereo not shown) [Example 232, (E)-4-(1-(2-Chlorophenyl)-3-(hydroxyimino)-3-(1-methyl-6-oxo-1,6-dihydropyridin-3-yl)propyl)-2-fluoro-N-(2-methoxyethyl)benzamide] displayed a concentration giving a half-maximal response (EC50) of 137 nM.

With `Cn1cc(/C(CC(c2ccc(C(=O)NC3CC3)c(F)c2)c2ccccc2Cl)=N/O)ccc1=O` (stereo not shown) [Example 233, (E)-4-(1-(2-Chlorophenyl)-3-(hydroxyimino)-3-(1-methyl-6-oxo-1,6-dihydropyridin-3-yl)propyl)-N-cyclopropyl-2-fluorobenzamide], it took 186 nM to reach a half-maximal effect (EC50).

For `Cn1cc(/C(CC(c2ccc(C(=O)NCC(F)(F)F)c(F)c2)c2ccccc2Cl)=N/O)ccc1=O` (stereo not shown) [Example 234, (E)-4-(1-(2-Chlorophenyl)-3-(hydroxyimino)-3-(1-methyl-6-oxo-1,6-dihydropyridin-3-yl)propyl)-2-fluoro-N-(2,2,2-trifluoroethyl)benzamide], the 50% effective concentration (EC50) is 380 nM.

Regarding `Cc1ccccc1C(C/C(=N\O)c1ccc(=O)n(C)c1)c1ccc(Oc2cccc(C(=O)O)c2)cc1F` (stereo not shown) [Example 235, 3-{3-Fluoro-4-[3-[(E)-hydroxyimino]-3-(1-methyl-6-oxo-1,6-dihydro-pyridin-3-yl)-1-o-tolyl-propyl]-phenoxy}-benzoic acid], the half-maximal effective concentration (EC50) worked out at 43 nM.

Regarding `Cc1ccccc1C(C/C(=N\O)c1ccc(=O)n(C)c1)c1ccc(-c2ccccc2C(=O)O)cc1F` (stereo not shown) [Example 236, 3′-Fluoro-4′-[3-[(E)-hydroxyimino]-3-(1-methyl-6-oxo-1,6-dihydro-pyridin-3-yl)-1-o-tolyl-propyl]-biphenyl-2-carboxylic acid], the response was half-maximal at 1200 nM (EC50).

`Cn1cc(/C(CC(c2ccc(Br)cc2)c2ccc(Cl)cc2F)=N/O)ccc1=O` (stereo not shown) [Example 237, 5-{3-(4-Bromo-phenyl)-3-(4-chloro-2-fluoro-phenyl)-1-[(E)-hydroxyimino]-propyl}-1-methyl-1H-pyridin-2-one] came in with an EC50 of 25 nM.

Turning to `Cn1cc(/C(CC(c2ccc(-c3ccc(C(=O)O)cc3)cc2)c2ccc(Cl)cc2F)=N/O)ccc1=O` (stereo not shown) [Example 238, 4′-[1-(4-Chloro-2-fluoro-phenyl)-3-[(E)-hydroxyimino]-3-(1-methyl-6-oxo-1,6-dihydro-pyridin-3-yl)-propyl]-biphenyl-4-carboxylic acid], a half-maximal effect (EC50) was put at 23 nM.

As to `Cn1cc(/C(CC(c2ccc(Br)cc2)c2ccccc2F)=N/O)ccc1=O` (stereo not shown) [Example 243, (E)-5-(3-(4-Bromophenyl)-3-(2-fluorophenyl)-1-(hydroxyimino)propyl)-1-methylpyridin-2(1H)-one], the 50% effective concentration (EC50) came out at 20 nM.

As for `Cn1cc(/C(CC(c2ccc(-c3ccc(C(=O)O)cc3)cc2)c2ccccc2F)=N/O)ccc1=O` (stereo not shown) [Example 244, (E)-4′-(1-(2-Fluorophenyl)-3-(hydroxyimino)-3-(1-methyl-6-oxo-1,6-dihydropyridin-3-yl)propyl)biphenyl-4-carboxylic acid], the midpoint of the response, the EC50, lay at 260 nM.

The compound `CCNC(=O)c1ccc(C(C/C(=N\O)c2ccc(=O)n(C)c2)c2ccccc2Cl)cc1F` (stereo not shown) [Example 245, (E)-4-(1-(2-Chlorophenyl)-3-(hydroxyimino)-3-(1-methyl-6-oxo-1,6-dihydropyridin-3-yl)propyl)-N-ethyl-2-fluorobenzamide] displayed a concentration for a half-maximal effect (EC50) of 250 nM.

As for `CC(=O)NCCNC(=O)c1ccc(C(C/C(=N\O)c2ccc(=O)n(C)c2)c2ccccc2C)cc1` (stereo not shown) [Example 246, (E)-N-(2-Acetamidoethyl)-4-(3-(hydroxyimino)-3-(1-methyl-6-oxo-1,6-dihydropyridin-3-yl)-1-o-tolylpropyl)benzamide], the EC50 turned out to be 2180 nM. This EC50 lies about 8.7-fold higher than the previous one.

As for `Cc1ccccc1C(C/C(=N\O)c1ccc(=O)n(C)c1)c1ccc(C(=O)NC[C@H](C)O)cc1` (stereo partly drawn) [Example 247, 4-((E)-3-(Hydroxyimino)-3-(1-methyl-6-oxo-1,6-dihydropyridin-3-yl)-1-o-tolylpropyl)-N-((S)-2-hydroxypropyl)benzamide], the EC50 was 220 nM.

For the compound `Cc1ccccc1C(C/C(=N\O)c1ccc(=O)n(C)c1)c1ccc(C(=O)NC[C@@H](C)O)cc1` (stereo partly drawn) [Example 248, 4-((E)-3-(Hydroxyimino)-3-(1-methyl-6-oxo-1,6-dihydropyridin-3-yl)-1-o-tolylpropyl)-N-((R)-2-hydroxypropyl)benzamide], the concentration giving a half-maximal response (EC50) was found to be 70 nM.

Compound `Cn1cc(/C(CC(c2ccc(S(C)(=O)=O)cc2)c2ccccc2Cl)=N/O)ccc1=O` (stereo not shown) [Example 249, (E)-5-(3-(2-Chlorophenyl)-1-(hydroxyimino)-3-(4-(methylsulfonyl)phenyl)propyl)-1-methylpyridin-2(1H)-one] had a concentration for a half-maximal effect (EC50) of 30 nM.

`Cn1cc(/C(CC(c2ccc(=O)n(C)c2)c2ccccc2Cl)=N/O)ccc1=O` (stereo not shown) [Example 250, (E)-5,5′-(1-(2-Chlorophenyl)-3-(hydroxyimino)propane-1,3-diyl)bis(1-methylpyridin-2(1H)-one)] returned an EC50 of 1350 nM. Compared with the last compound, the EC50 is about 45-fold higher.

The term EC50 denotes the concentration giving half of the maximal effect. A lower EC50 goes with higher potency in that assay.

Source of the values: patent US8765730B2 (Hoffmann-La Roche Inc, priority 2010, dated 2014).
